According to US20100144755A1 (Glaxo Group Limited, priority 2006, published 2010):
Counter-ions that a name gives are not always drawn.

Legend:
[1] = tested on: influx of neutrophils to the lung in LPS-challenged rats; assay: Rat LPS neutrophilia model; format: in vivo; settings: LPS aerosol, intratracheal dosing, in at least one of the range of conditions tested, significance p<0.05
Method in brief: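 Compound given intratracheally (200 ul suspension or dry powder via microsprayer) to isoflurane-anesthetized rats 15 min–24 h before 15 min LPS aerosol (100 ug/ml). Lavage 4 h post-challenge; neutrophils from differential counts. % inhibition versus no-compound controls at a given concentration and pretreat time.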

[2] = target: T1, Recombinant human p38α (Homo sapiens, UniProt Q16539); assay: Time-resolved fluorescence resonance energy transfer (TR-FRET) kinase assay (standard and low volume); format: biochemical
T1 construct: His; made in house
T1 sequence (Q16539 whole entry): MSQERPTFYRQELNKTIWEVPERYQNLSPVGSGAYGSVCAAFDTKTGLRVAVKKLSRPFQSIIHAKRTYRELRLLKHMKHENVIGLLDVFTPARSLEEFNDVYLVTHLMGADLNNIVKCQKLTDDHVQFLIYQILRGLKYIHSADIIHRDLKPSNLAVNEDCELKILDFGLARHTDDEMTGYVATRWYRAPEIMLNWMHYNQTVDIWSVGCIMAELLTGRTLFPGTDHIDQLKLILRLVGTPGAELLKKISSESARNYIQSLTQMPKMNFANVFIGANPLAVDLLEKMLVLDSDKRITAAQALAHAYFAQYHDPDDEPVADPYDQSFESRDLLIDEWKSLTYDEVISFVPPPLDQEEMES
Description: Time-Resolved Fluorescence Resonance Energy Transfer Linase Standard Assay
(§1) Recombinant human p38α was expressed as a His-tagged protein. To activate this protein, 3 μM unactivated p38α was incubated in 200 mM Hepes pH 7.4, 625 mM NaCl, 1 mM DTT with 27 nM active MKK6 (Upstate), 1 mM ATP and 10 mM MgCl2 The activity of the MKK6-activated p38α was assessed using a time-resolved fluorescence resonance energy transfer (TR-FRET) assay.
Biotinylated-GST-ATF2 (residues 19-96, 400 nM final), ATP ([…]) and MgCl2 (5 mM final) in assay buffer (40 mM HEPES pH 7.4, 1 mM DTT) were added to wells containing 1 ul of various concentrations of compound or DMSO vehicle (3% final) in NUNC 384 well black plate. The reaction was initiated by the addition of MKK6-activated p38 (100 pM final) to give a total volume of 30 ul. The reaction was incubated for 120 minutes at room temperature, then terminated by the addition of 15 μl of 100 mM EDTA pH 7.4. Detection reagent (15 μl) in buffer (100 mM HEPES pH 7.4, 150 mM NaCl, 0.1% w/v BSA, 1 mM DTT) containing antiphosphothreonine-ATF2-71 polyclonal antibody (Cell Signalling Technology, Beverly Mass., USA) labelled with W-1024 europium chelate (Wallac O Y, Turku, Finland), and APC-labelled streptavidin (Prozyme, San Leandro, Calif., USA) was added and the reaction was further incubated for 60 minutes at room temperature. The degree of phosphorylation of GST-ATF2 was measured using a Packard Discovery plate reader (Perkin-Elmer Life Sciences, Pangbourne, UK) as a ratio of specific 665 nm energy transfer signal to reference europium 620 nm signal.
Time-Resolved Fluorescence Resonance Energy Transfer Kinase Low Volume Assay
as §1, with “pH7.4,” for “pH 7.4,”
Biotinylated-GST-ATF2 (residues 19-96, 400 nM final), ATP (125 μM final) and MgCl2 (5 mM final) in assay buffer (40 mM HEPES pH 7.4, 1 mM DTT) were added to wells containing 0.1 μl of various concentrations of compound or DMSO vehicle (1.7% final) in Greiner low volume 384 well black plate. The reaction was initiated by the addition of MKK6-activated p38α (100 pM final) to give a total volume of 6 μl. […] The degree of phosphorylation of GST-ATF2 was measured using a BMG Rubystar plate reader (BMG, UK) as a ratio of specific 665 nm energy transfer signal to reference europium 620 nm signal.
It is noted that there are two assay formats shown above for the Time-resolved fluorescence resonance energy transfer kinase assay. […]

[3] = tested on: LPS-stimulated TNFalpha production in human whole blood; assay: LPS-stimulated cytokine production in human whole blood; format: cell-based; settings: LPS 50 ng/ml final, 4 hour incubation, read-out: IC50, LPS-stimulated TNF-alpha production in human whole blood
Description: LPS-Stimulated Cytokine Production in Human Whole Blood
Assay: Test compound concentrations were prepared at 10× concentrations and LPS prepared at 1 ug/ml (final conc. of 50 ng/ml LPS) and added in 50 uL volumes to 1.5 mL eppendorf tubes. Heparinized human whole blood was obtained from healthy volunteers and was dispensed into eppendorf tubes or multiwell plates containing compounds and LPS in 0.2-0.4 mL volumes and the tubes incubated at 37 C. In some studies, compound was incubated with blood for up to 30 min prior to addition of LPS. Following a 4 hour incubation, the tubes or plates were centrifuged to remove cells and plasma was withdrawn and frozen at −80 C.
Cytokine measurement: IL-Ibeta and/or TNFalpha were quantified using a standardized ELISA, or similar technology.

[4] = tested on: TNF-stimulated IL8 production by human neutrophils; assay: TNF-stimulated IL-8 production from human neutrophils; format: cell-based; settings: Neutrophil, TNF 100 ng/ml, about 20 hrs, bounds reflect the top concentration screened, for 202(c) and 120 a range over multiple runs with ends given as 'greater than';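 also: IL-8 in cell-free supernatant quantified by sandwich ELISA, inhibition calculated against a compound-free control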
Description: TNF-Stimulated IL-8 Production from Human Neutrophils
The effect of test compounds on TNF-stimulated IL8 production by human neutrophils is measured as follows. Neutrophils are prepared from blood obtained from consenting donors, using standard methods. Blood is collected in heparinized syringes and layered over histopaque (30 ml/20 ml). Following centrifugation, the red cell pellet is resuspended in PBS and purified over a dextran gradient. […] Cells are added (0.5-1 ml) to 48 well plates already containing compound at 1000× final concentration in neat DMSO or 10% DMSO in RPMI1640 with 10% FBS. TNF (final concentration 100 ng/ml) is used as the stimulus. Cells incubated for approximately 20 hrs at 37° C., 5% CO2. Levels of IL-8 in the cell free supernatant are determined by sandwich ELISA, and inhibition relative to a control with DMPO but no compound is calculated.

[5] = target: T1, Recombinant human p38α; assay: Fluorescence anisotropy kinase binding assay (standard and low volume)
Source text: Fluorescence Anisotropy Kinase Binding Assay—Standard Volume
(§2) The concentration of kinase enzyme should preferably be ≧2×Kf. The concentration of fluorescent ligand required will depend on the instrumentation used, and the fluorescent and physicochemical properties. The concentration used must be lower than the concentration of kinase enzyme, and preferably less than half the kinase enzyme concentration.
The fluorescent ligand is the following compound:
which is derived from 5-[2-(4-aminomethylphenyl)-5-pyridin-4-yl-1H-imidazol-4-yl]-2-chlorophenol and rhodamine green.
Recombinant human p38α was expressed as a GST-tagged protein. To activate this protein, 3.5 μM unactivated p38α was incubated in 50 mM Tris-HCl pH 7.5, 0.1 mM EGTA, 0.1% 2-mercaptoethanol, 0.1 mM sodium vanadate, 10 mM MgAc, 0.1 mM ATP with 200 nM MBP-MKK6 DD at 30 degrees for 30 mins. Following activation p38α was re-purified and the activity assessed using a standard filter-binding assay.
(§3) Protocol: All components are dissolved in buffer of composition 62.5 mM HEPES, pH 7.5, 1.25 mM CHAPS, 1 mM DTT, 12.5 mM MgCl2 with final concentrations of 12 nM p38α and 5 nM fluorescent ligand. 30 μl of this reaction mixture is added to wells containing 1 μl of various concentrations of test compound (0.28 nM-16.6 μM final) or DMSO vehicle (3% final) in NUNC 384 well black microtitre plate and equilibrated for 30-60 mins at room temperature. Fluorescence anisotropy is read in Molecular Devices Acquest (excitation 485 nm/emission 535 nm).
Definitions: Ki=dissociation constant for inhibitor binding • Kf=dissociation constant for fluorescent ligand binding
Fluorescence Anisotropy Kinase Binding Low Volume Assay
as §2, with “2×Kf.” for “≧2×Kf.”
as §3, with “containing 0.1” for “containing 1”, “compound (0.02 nM-25” for “compound (0.28 nM-16.6”, “vehicle (1.7%” for “vehicle (3%”, “in Greiner low volume” for “in NUNC”
It is noted that there are two assay formats shown above for the Fluorescence anisotropy kinase binding assay. The only difference between these two assays is the volume used and the plate type. […] The results described herein may have been performed in either assay format and are not differentiated as to which.

[6] = for 97(b) and 115 a broad range over multiple runs, lower end less than 4.6, read-out: pIC50, TR-FRET p38α kinase assay (converted)
[7] = 12 nM p38α, 5 nM fluorescent ligand, 5.1 to 8.4 is stated collectively for the listed examples, read-out: pIC50, fluorescence anisotropy kinase binding assay (converted)
[8] = no IC50 at a concentration of less than 16 uM, read-out: IC50, fluorescence anisotropy kinase binding assay

| Structure (SMILES) | IC50 [2, 6] [µM] | IC50 [3] [µM] | IC50 [4] [µM] | IC50 [5, 7] [µM] | IC50 [5, 8] [µM] | also measured |
| --- | --- | --- | --- | --- | --- | --- |
| Cc1ccc(C(=O)Nc2ccc(F)cc2)cc1-c1nc(N(C)CCCN(C)C)nc2c1ccc(=O)n2-c1c(F)cccc1F [Example 115, 3-{8-(2,6-difluorophenyl)-2-[[3-(dimethylamino)propyl](methyl)amino]-7-oxo-7,8-dihydropyrido[2,3-d]pyrimidin-4-yl}-N-(4-fluorophenyl)-4-methylbenzamide] | ≥ 0.0398 |  |  |  |  | inhibition of neutrophilia [1]: statistically nonsignificant inhibition |
| Cc1ccc(C(=O)NCCc2ccccc2)cc1-c1nc(NC(CO)CO)nc2c1ccc(=O)n2-c1c(F)cccc1F [Example 93, 3-(8-(2,6-difluorophenyl)-2-{[2-hydroxy-1-(hydroxymethyl)ethyl]amino}-7-oxo-7,8-dihydropyrido[2,3-d]pyrimidin-4-yl)-4-methyl-N-(2-phenylethyl)benzamide trifluoroacetate] |  | > 1 |  |  |  |  |
| Cc1ccc(C(=O)O)cc1-c1nc(-n2ccnc2CN)nc2c1ccc(=O)n2-c1c(F)cccc1F [Example 97(b), 3-[2-[2-(aminomethyl)-1H-imidazol-1-yl]-8-(2,6-difluorophenyl)-7-oxo-7,8-dihydropyrido[2,3-d]pyrimidin-4-yl]-4-methylbenzoic acid trifluoroacetate] | ≥ 0.0398 | > 1 |  |  |  |  |
| Cc1ccc(NC(=O)c2cccs2)cc1-c1nc(NC2CC(C)(C)NC(C)(C)C2)nc2c1ccc(=O)n2-c1c(F)cccc1F [Example 9, N-(3-{8-(2,6-difluorophenyl)-7-oxo-2-[(2,2,6,6-tetramethyl-4-piperidinyl)amino]-7,8-dihydropyrido[2,3-d]pyrimidin-4-yl}-4-methylphenyl)-2-thiophenecarboxamide] |  |  | > 0.1 | > 15.8 | ≥ 16 |  |
| CCN(CC)CCCNc1nc(-c2ccc(C(=O)O)cc2)c2ccc(=O)n(-c3c(F)cccc3F)c2n1 [Example 188(a), 4-[2-{[3-(diethylamino)propyl]-amino}-8-(2,6-difluorophenyl)-7-oxo-7,8-dihydropyrido[2,3-d]pyrimidin-4-yl]benzoic acid] | > 15.8 |  | > 0.1 |  |  | IC50 ([2]; no IC50 at a concentration of less than 16 uM, read-out: IC50, TR-FRET p38α kinase assay): ≥ 16 µM |
| Cc1ccc(C(=O)NC(C)C)cc1-c1nc(N(C)CCN(C)C)nc2c1ccc(=O)n2-c1c(F)cccc1F [Example 100, 3-{8-(2,6-difluorophenyl)-2-[[2-(dimethylamino)ethyl](methyl)amino]-7-oxo-7,8-dihydropyrido[2,3-d]pyrimidin-4-yl}-4-methyl-N-(1-methylethyl)benzamide] |  | > 1 |  |  |  |  |
| O=C(O)c1cccc(-c2nc(NC(CO)CO)nc3c2ccc(=O)n3-c2ccc(F)cc2F)c1 [Example 96(d), 3-(8-(2,4-difluorophenyl)-2-{[2-hydroxy-1-(hydroxymethyl)ethyl]amino}-7-oxo-7,8-dihydropyrido[2,3-d]pyrimidin-4-yl)benzoic acid] |  |  |  | > 15.8 | ≥ 16 |  |
| CSc1nc(Cl)c2ccc(=O)n(-c3c(F)cccc3F)c2n1 [Example 1(a), 4-chloro-8-(2,6-difluorophenyl)-2-(methylthio)pyrido[2,3-d]pyrimidin-7(8H)-one] |  |  | > 0.1 | > 15.8 | ≥ 16 |  |
